Results: patent US4305942A, “Xanthine oxidase inhibitor and therapeutic treatment using same” (Siegfried Aktiengesellschaft, priority 1979, dated 1981)
Read-outs that look alike come from different tables or passages of the source.

Experiments:
[1] = cited from earlier work
[2] = molecular target: T1, xanthine oxidase (Bos taurus, UniProt P80457); assay: xanthine oxidase inhibition in vitro (UV-spectrophotometric uric acid formation at 290 nm from hypoxanthine); format: biochemical; details: for Inhibition (%) of xanthine oxidase: 6 minutes, ambient temperature
T1 construct: purchased CALBIOCHEM 682151
T1 sequence (P80457 whole entry): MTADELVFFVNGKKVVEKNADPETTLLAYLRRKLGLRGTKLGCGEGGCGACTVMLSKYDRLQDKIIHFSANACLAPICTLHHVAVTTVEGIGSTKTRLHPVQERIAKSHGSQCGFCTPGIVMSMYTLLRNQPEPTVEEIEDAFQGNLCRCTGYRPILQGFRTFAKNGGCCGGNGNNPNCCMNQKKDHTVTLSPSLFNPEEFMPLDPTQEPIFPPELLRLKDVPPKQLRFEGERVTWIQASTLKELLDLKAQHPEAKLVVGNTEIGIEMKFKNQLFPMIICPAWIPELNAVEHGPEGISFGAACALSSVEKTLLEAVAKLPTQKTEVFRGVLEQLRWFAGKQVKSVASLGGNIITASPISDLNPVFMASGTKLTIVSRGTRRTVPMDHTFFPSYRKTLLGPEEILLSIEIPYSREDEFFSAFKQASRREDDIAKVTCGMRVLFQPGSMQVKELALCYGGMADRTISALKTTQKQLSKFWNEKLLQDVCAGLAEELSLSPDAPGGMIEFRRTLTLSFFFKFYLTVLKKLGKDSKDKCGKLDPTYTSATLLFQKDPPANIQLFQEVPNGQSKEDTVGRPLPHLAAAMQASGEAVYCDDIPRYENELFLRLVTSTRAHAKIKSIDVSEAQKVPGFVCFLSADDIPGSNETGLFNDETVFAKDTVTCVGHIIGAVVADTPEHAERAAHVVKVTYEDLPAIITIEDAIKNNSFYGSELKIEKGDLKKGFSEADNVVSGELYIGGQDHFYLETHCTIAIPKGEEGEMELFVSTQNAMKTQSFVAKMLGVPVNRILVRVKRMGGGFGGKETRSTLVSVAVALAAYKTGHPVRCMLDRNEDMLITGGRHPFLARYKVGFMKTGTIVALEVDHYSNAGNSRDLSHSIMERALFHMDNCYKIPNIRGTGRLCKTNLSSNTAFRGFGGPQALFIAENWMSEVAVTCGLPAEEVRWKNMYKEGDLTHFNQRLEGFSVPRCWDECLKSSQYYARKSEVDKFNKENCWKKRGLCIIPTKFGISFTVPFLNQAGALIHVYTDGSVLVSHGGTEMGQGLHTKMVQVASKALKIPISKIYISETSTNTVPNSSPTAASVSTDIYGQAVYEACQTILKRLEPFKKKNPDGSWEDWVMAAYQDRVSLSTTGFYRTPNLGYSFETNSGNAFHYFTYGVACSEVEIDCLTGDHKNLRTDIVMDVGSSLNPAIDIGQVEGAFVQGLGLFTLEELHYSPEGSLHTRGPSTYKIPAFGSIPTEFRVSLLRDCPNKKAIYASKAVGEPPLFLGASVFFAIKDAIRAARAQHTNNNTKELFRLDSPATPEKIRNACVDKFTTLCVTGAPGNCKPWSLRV
Experimental: In the human in vivo metabolism the xanthine oxidase decomposes xanthine and hypoxanthine, respectively, to yield uric acid. This decomposition reaction can be perfectly simulated in vitro. For this purpose buffered solutions of (a) hypoxanthine, (b) xanthine oxidase and (c) the test substance are prepared. Solution (a) and (c) are mixed and filled into the cuvette of a UV-spectrophotometer. Solution (b) is then added into the cuvette. The UV-spectrophotometer is adjusted to 290 nm, i.e. to one of the main absorption lines of uric acid. Registration of the intensity of the 290 nm line is commenced immediately upon adding solution (b), i.e., upon adding the xanthine oxidase solution. The measurement is continued for exactly 6 minutes. For each test substance a certain number of measurements is carried out at varying concentrations of the test substance. The registered intensity values obtained after a certain time, here after 6 minutes, are compared to a standard registration containing as a solution (c) a blank buffer solution.
For the present measurements the UV-spectrophotometer used is a ZEISS PM Q II.
Solution (a) is 1 ml hypoxanthine puriss (FLUKA No. 56700) dissolved in a concentration of 1.5×10^-4 moles/liter in a 0.067 molar phosphate buffer solution having a pH of 7.4.
Solution (b) is 1 ml xanthine oxidase (CALBIOCHEM No. 682151) having a specific activity of 2.65 I.U./ml at 30° C., and is diluted in a ratio of 1:200 in the same phosphate buffer as used in solution (a).
Solution (c) is 1 ml of blank phosphate buffer for controls (standards) and a solution of the test substance dissolved in said phosphate buffer in varying concentrations, respectively.
The spectrophotometric measurements are carried out at ambient temperature.

Inhibition (%) of xanthine oxidase ([2]; 1.25 × 10^-5 moles/liter azapropazone, pH 7.4)	Inhibition (%) of xanthine oxidase ([2]; 2.50 × 10^-5 moles/liter azapropazone, pH 7.4)	Inhibition (%) of xanthine oxidase ([2]; 5.00 × 10^-5 moles/liter azapropazone, pH 7.4)	IC50 ([2]; 50% inhibition concentration (xanthine oxidase), IC50 expressed in μg/ml)	IC50 ([2]; 50% inhibitive concentration IC50 (xanthine oxidase), interpolated from inhibition values, hypoxanthine substrate, pH 7.4)	Structure (SMILES)	plasma level ([1]; 300 mg/d allopurinol orally in one single portion)	plasma level ([1]; 1000 mg/d azapropazone orally in one single portion)
					Oc1ncnc2[nH]ncc12 [allopurinol]	2000 ng/mL	
20%	35%	55%	44.9 µM	40 µM	CCCC1C(=O)N2C(N(C)C)=Nc3ccc(C)cc3N2C1=O (stereo not shown) [azapropazone, 3-dimethylamino-7-methyl-1,2-(n-propylmalonyl)-1,2-dihydro-1,2,4-benzotriazine dihydrate]		80800 ng/mL
